Patent publication US20090018134A1, “Compounds - 945” (AstraZeneca AB, priority 2007, published 2009)

What follows are compounds tested against T1, mTOR (Homo sapiens, UniProt P42345) (assay: In Vitro mTOR Kinase Assay (Echo), Test (a)(ii)). Settings: read-out: mTOR Kinase Assay (Echo).
T1 construct: FLAG; made in house
Format: biochemical
Excerpt: (a)(ii) In Vitro mTOR Kinase Assay (Echo)
The assay used AlphaScreen technology (Gray et al., Analytical Biochemistry, 2003, 313: 234-245) to determine the ability of test compounds to inhibit phosphorylation by recombinant mTOR.
A C-terminal truncation of mTOR encompassing amino acid residues 1362 to 2549 of mTOR (EMBL Accession No. L34075) was stably expressed as a FLAG-tagged fusion in HEK293 cells as described by Vilella-Bach et al., […], 1999, 274, 4266-4272. The HEK293 FLAG-tagged mTOR (1362-2549) stable cell line was routinely maintained at 37° C. with 5% CO2 up to a confluency of 70-90% in Dulbecco's modified Eagle's growth medium (DMEM; Invitrogen Limited, Paisley, UK Catalogue No. 41966-029) containing 10% heat-inactivated foetal calf serum (FCS; Sigma, Poole, Dorset, UK, Catalogue No. F0392), 1% L-glutamine (Gibco, Catalogue No. 25030-024) and 2 mg/ml Geneticin (G418 sulfate; Invitrogen Limited, UK Catalogue No. 1013 1-027). Following expression in the mammalian HEK293 cell line, expressed protein was purified using the FLAG epitope tag using standard purification techniques.
Aliquots (120 nl […]) of each compound dilution were acoustically dispensed placed using a Labcyte Echo 550 into a well of a Greiner 384-well low volume (LV) white polystyrene plate (Greiner Bio-one).
These assay solutions were incubated for 2 hours at room temperature.
Each reaction was stopped by the addition of […] of a mixture of EDTA (50 mM), bovine serum albumin (BSA; 0.5 mg/mL) and Tris-HCl pH 7.4 buffer (50 mM) containing p70 S6 Kinase (T389) 1A5 Monoclonal Antibody (Cell Signalling Technology, Catalogue No. 9206B) and AlphaScreen Streptavidin donor and Protein A acceptor beads (200 ng; Perkin Elmer, Catalogue No. 6760002B and 6760137R respectively) were added and the assay plates were left overnight at room temperature in the dark. The resultant signals arising from laser light excitation at 680 nm were read using a Packard Envision instrument.
The phosphorylated biotinylated peptide that is associated with AlphaScreen Streptavidin donor beads forms a complex with the p70 S6 Kinase (T389) 1A5 Monoclonal Antibody that is associated with Alphascreen Protein A acceptor beads. Upon laser light excitation at 680 nm, the donor bead: acceptor bead complex produces a signal that can be measured. Accordingly, the presence of mTOR kinase activity results in an assay signal. In the presence of an mTOR kinase inhibitor, signal strength is reduced.
mTOR enzyme inhibition for a given test compound was expressed as an IC50 value.

T1 sequence (P42345 1362-2549): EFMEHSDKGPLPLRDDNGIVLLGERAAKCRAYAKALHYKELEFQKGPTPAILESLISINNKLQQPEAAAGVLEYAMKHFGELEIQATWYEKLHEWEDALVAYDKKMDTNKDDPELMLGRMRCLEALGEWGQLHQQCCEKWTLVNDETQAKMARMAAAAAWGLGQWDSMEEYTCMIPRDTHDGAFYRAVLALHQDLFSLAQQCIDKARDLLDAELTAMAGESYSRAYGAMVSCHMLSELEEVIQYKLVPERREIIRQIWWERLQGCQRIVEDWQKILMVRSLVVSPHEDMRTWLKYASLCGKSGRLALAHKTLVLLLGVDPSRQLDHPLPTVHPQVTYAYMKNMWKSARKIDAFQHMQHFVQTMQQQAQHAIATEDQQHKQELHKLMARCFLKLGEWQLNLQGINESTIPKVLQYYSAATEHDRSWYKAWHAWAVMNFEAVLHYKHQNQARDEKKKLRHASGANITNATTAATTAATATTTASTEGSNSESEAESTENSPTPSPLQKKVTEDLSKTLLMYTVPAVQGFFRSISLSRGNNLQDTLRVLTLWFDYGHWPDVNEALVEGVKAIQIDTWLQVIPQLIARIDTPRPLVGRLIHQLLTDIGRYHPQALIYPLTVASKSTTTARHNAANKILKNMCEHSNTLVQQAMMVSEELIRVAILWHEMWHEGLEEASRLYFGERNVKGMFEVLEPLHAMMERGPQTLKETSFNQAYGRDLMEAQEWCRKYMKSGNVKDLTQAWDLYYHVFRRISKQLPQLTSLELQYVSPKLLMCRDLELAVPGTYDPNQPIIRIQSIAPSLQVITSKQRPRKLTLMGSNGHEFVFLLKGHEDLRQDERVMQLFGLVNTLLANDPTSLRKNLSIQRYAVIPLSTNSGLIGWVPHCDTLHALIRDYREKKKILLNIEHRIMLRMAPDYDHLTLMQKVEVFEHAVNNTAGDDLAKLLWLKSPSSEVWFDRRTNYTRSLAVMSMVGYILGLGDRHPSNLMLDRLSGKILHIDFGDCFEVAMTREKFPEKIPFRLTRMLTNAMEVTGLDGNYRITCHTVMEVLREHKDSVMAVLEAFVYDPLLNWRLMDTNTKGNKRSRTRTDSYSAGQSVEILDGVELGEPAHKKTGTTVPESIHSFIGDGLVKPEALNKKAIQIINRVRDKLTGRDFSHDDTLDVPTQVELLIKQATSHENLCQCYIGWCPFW

Point of comparison: `CNC(=O)Nc1ccc(-c2nc(N3CCOC[C@@H]3C)cc(C3(S(C)(=O)=O)CCC3)n2)cc1` [Example 5, 3-Methyl-1-[4-[4-[(3S)-3-methylmorpholin-4-yl]-6-(1-methylsulfonylcyclobutyl)pyrimidin-2-yl]phenyl]urea], IC50 0.802 nM. Against it:
- C[C@H]1COCCN1c1cc(C2(S(=O)(=O)C3CC3)CC2)nc(-c2ccc(NC(=O)NCCC#N)cc2)n1 [Example 3o, 3-(2-cyanoethyl)-1-[4-[4-(1-cyclopropylsulfonylcyclopropyl)-6-[(3S)-3-methylmorpholin-4-yl]pyrimidin-2-yl]phenyl]urea] — 7.4-fold higher, 5.96 nM
- C[C@H]1COCCN1c1cc(C2(S(=O)(=O)C3CC3)CC2)nc(-c2ccc(NC(=O)NCCN3CCCC3)cc2)n1 [Example 3p, 1-[4-[4-(1-cyclopropylsulfonylcyclopropyl)-6-[(3S)-3-methylmorpholin-4-yl]pyrimidin-2-yl]phenyl]-3-(2-pyrrolidin-1-ylethyl)urea] — 240-fold higher, 193 nM
- C[C@H]1COCCN1c1cc(C2(S(=O)(=O)C3CC3)CC2)nc(-c2ccc(NC(=O)NCC(O)C(F)(F)F)cc2)n1 (stereo partly drawn) [Example 3q, 1-[4-[4-(1-cyclopropylsulfonylcyclopropyl)-6-[(3S)-3-methylmorpholin-4-yl]pyrimidin-2-yl]phenyl]-3-(3,3,3-trifluoro-2-hydroxypropyl)urea] — 10-fold higher, 8.39 nM
- C[C@H]1COCCN1c1cc(C2(S(=O)(=O)C3CC3)CC2)nc(-c2ccc(NC(=O)NCC(C)(C)O)cc2)n1 [Example 3r, 1-[4-[4-(1-cyclopropylsulfonylcyclopropyl)-6-[(3S)-3-methylmorpholin-4-yl]pyrimidin-2-yl]phenyl]-3-(2-hydroxy-2-methylpropyl)urea] — 61-fold higher, 48.8 nM
- C[C@H]1COCCN1c1cc(C2(S(=O)(=O)C3CC3)CC2)nc(-c2ccc(NC(=O)NC3(CO)CC3)cc2)n1 [Example 3s, 1-[4-[4-(1-cyclopropylsulfonylcyclopropyl)-6-[(3S)-3-methylmorpholin-4-yl]pyrimidin-2-yl]phenyl]-3-[1-(hydroxymethyl)cyclopropyl]urea] — 33-fold higher, 26.3 nM
- C[C@H]1COCCN1c1cc(C2(S(=O)(=O)C3CC3)CC2)nc(-c2ccc(NC(=O)NC3COC3)cc2)n1 [Example 3t, 1-[4-[4-(1-cyclopropylsulfonylcyclopropyl)-6-[(3S)-3-methylmorpholin-4-yl]pyrimidin-2-yl]phenyl]-3-(oxetan-3-yl)urea] — 6-fold higher, 4.79 nM
- C[C@H]1COCCN1c1cc(C2(S(=O)(=O)C3CC3)CC2)nc(-c2ccc(NC(=O)Nc3ccn(C)n3)cc2)n1 [Example 3u, 1-[4-[4-(1-cyclopropylsulfonylcyclopropyl)-6-[(3S)-3-methylmorpholin-4-yl]pyrimidin-2-yl]phenyl]-3-(1-methylpyrazol-3-yl)urea] — within 1.5-fold, 0.604 nM
- C[C@H]1COCCN1c1cc(C2(S(=O)(=O)C3CC3)CC2)nc(-c2ccc(NC(=O)Nc3ncns3)cc2)n1 [Example 3w, 1-[4-[4-(1-cyclopropylsulfonylcyclopropyl)-6-[(3S)-3-methylmorpholin-4-yl]pyrimidin-2-yl]phenyl]-3-(1,2,4-thiadiazol-5-yl)urea] — within 1.5-fold, 0.89 nM
- CNC(=O)Nc1ccc(-c2nc(N3CCOC[C@@H]3C)cc(C3(S(C)(=O)=O)CCCC3)n2)cc1 [Example 4, 3-Methyl-1-[4-[4-[(3S)-3-methylmorpholin-4-yl]-6-(1-methylsulfonylcyclopentyl)pyrimidin-2-yl]phenyl]urea] — within 1.5-fold, 0.699 nM
- CCNC(=O)Nc1ccc(-c2nc(N3CCOC[C@@H]3C)cc(C3(S(C)(=O)=O)CCCC3)n2)cc1 [Example 4a, 3-ethyl-1-[4-[4-[(3S)-3-methylmorpholin-4-yl]-6-(1-methylsulfonylcyclopentyl)pyrimidin-2-yl]phenyl]urea] — 2.7-fold higher, 2.16 nM
- CC(C)NC(=O)Nc1ccc(-c2nc(N3CCOC[C@@H]3C)cc(C3(S(C)(=O)=O)CCCC3)n2)cc1 [Example 4c, 1-[4-[4-[(3S)-3-methylmorpholin-4-yl]-6-(1-methylsulfonylcyclopentyl)pyrimidin-2-yl]phenyl]-3-propan-2-yl-urea] — 21-fold higher, 16.9 nM
- C[C@H]1COCCN1c1cc(C2(S(C)(=O)=O)CCCC2)nc(-c2ccc(NC(=O)NC3CCC3)cc2)n1 [Example 4d, 3-cyclobutyl-1-[4-[4-[(3S)-3-methylmorpholin-4-yl]-6-(1-methylsulfonylcyclopentyl)pyrimidin-2-yl]phenyl]urea] — 12-fold higher, 10 nM
- C[C@H]1COCCN1c1cc(C2(S(C)(=O)=O)CCCC2)nc(-c2ccc(NC(=O)NCCO)cc2)n1 [Example 4e, 3-(2-hydroxyethyl)-1-[4-[4-[(3S)-3-methylmorpholin-4-yl]-6-(1-methylsulfonylcyclopentyl)pyrimidin-2-yl]phenyl]urea] — within 1.5-fold, 1.19 nM
- C[C@H]1COCCN1c1cc(C2(S(C)(=O)=O)CCCC2)nc(-c2ccc(NC(=O)NC(C)(C)CO)cc2)n1 [Example 4f, 3-(1-hydroxy-2-methyl-propan-2-yl)-1-[4-[4-[(3S)-3-methylmorpholin-4-yl]-6-(1-methylsulfonylcyclopentyl)pyrimidin-2-yl]phenyl]urea] — 12-fold higher, 10 nM
- C[C@H]1COCCN1c1cc(C2(S(C)(=O)=O)CCCC2)nc(-c2ccc(NC(=O)NCCN(C)C)cc2)n1 [Example 4g, 3-(2-dimethylaminoethyl)-1-[4-[4-[(3S)-3-methylmorpholin-4-yl]-6-(1-methylsulfonylcyclopentyl)pyrimidin-2-yl]phenyl]urea] — 78-fold higher, 62.6 nM
- CCCNC(=O)Nc1ccc(-c2nc(N3CCOC[C@@H]3C)cc(C3(S(C)(=O)=O)CCCC3)n2)cc1 [Example 4h, 1-[4-[4-[(3S)-3-methylmorpholin-4-yl]-6-(1-methylsulfonylcyclopentyl)pyrimidin-2-yl]phenyl]-3-propyl-urea] — 2-fold higher, 1.57 nM
- CC(C)CNC(=O)Nc1ccc(-c2nc(N3CCOC[C@@H]3C)cc(C3(S(C)(=O)=O)CCCC3)n2)cc1 [Example 4i, 1-[4-[4-[(3S)-3-methylmorpholin-4-yl]-6-(1-methylsulfonylcyclopentyl)pyrimidin-2-yl]phenyl]-3-(2-methylpropyl)urea] — 14-fold higher, 11.5 nM
- C[C@H]1COCCN1c1cc(C2(S(C)(=O)=O)CCCC2)nc(-c2ccc(NC(=O)NCCCO)cc2)n1 [Example 4j, 3-(3-hydroxypropyl)-1-[4-[4-[(3S)-3-methylmorpholin-4-yl]-6-(1-methylsulfonylcyclopentyl)pyrimidin-2-yl]phenyl]urea] — 5.7-fold higher, 4.61 nM
- C[C@H]1COCCN1c1cc(C2(S(C)(=O)=O)CCCC2)nc(-c2ccc(NC(=O)Nc3ccc(C(F)(F)F)cc3)cc2)n1 [Example 4k, 1-[4-[4-[(3S)-3-methylmorpholin-4-yl]-6-(1-methylsulfonylcyclopentyl)pyrimidin-2-yl]phenyl]-3-[4-(trifluoromethyl)phenyl]urea] — 11-fold higher, 9.05 nM
- C[C@H]1COCCN1c1cc(C2(S(C)(=O)=O)CCCC2)nc(-c2ccc(NC(=O)Nc3ccccn3)cc2)n1 [Example 4l, 1-[4-[4-[(3S)-3-methylmorpholin-4-yl]-6-(1-methylsulfonylcyclopentyl)pyrimidin-2-yl]phenyl]-3-pyridin-2-yl-urea] — 4.6-fold higher, 3.69 nM
- C[C@H]1COCCN1c1cc(C2(S(C)(=O)=O)CCCC2)nc(-c2ccc(NC(=O)Nc3cnn(C)c3)cc2)n1 [Example 4m, 1-[4-[4-[(3S)-3-methylmorpholin-4-yl]-6-(1-methylsulfonylcyclopentyl)pyrimidin-2-yl]phenyl]-3-(1-methylpyrazol-4-yl)urea] — 3.1-fold higher, 2.45 nM
- C[C@H]1COCCN1c1cc(C2(S(C)(=O)=O)CCCC2)nc(-c2ccc(NC(=O)NCc3ncc[nH]3)cc2)n1 [Example 4n, 3-(1H-imidazol-2-ylmethyl)-1-[4-[4-[(3S)-3-methylmorpholin-4-yl]-6-(1-methylsulfonylcyclopentyl)pyrimidin-2-yl]phenyl]urea] — 49-fold higher, 39.2 nM
- CCNC(=O)Nc1ccc(-c2nc(N3CCOC[C@@H]3C)cc(C3(S(C)(=O)=O)CCC3)n2)cc1 [Example 5a, 3-ethyl-1-[4-[4-[(3S)-3-methylmorpholin-4-yl]-6-(1-methylsulfonylcyclobutyl)pyrimidin-2-yl]phenyl]urea] — 2.8-fold lower, 0.289 nM
- CC(C)NC(=O)Nc1ccc(-c2nc(N3CCOC[C@@H]3C)cc(C3(S(C)(=O)=O)CCC3)n2)cc1 [Example 5c, 1-[4-[4-[(3S)-3-methylmorpholin-4-yl]-6-(1-methylsulfonylcyclobutyl)pyrimidin-2-yl]phenyl]-3-propan-2-yl-urea] — 8.5-fold higher, 6.81 nM

Same assay, conditions: table of enzyme assay Test (a)(ii); read-out: Test (a)(ii) IC50

Point of comparison: `CCCNC(=O)Nc1ccc(-c2nc(N3CCOC[C@@H]3C)cc(C3(S(C)(=O)=O)CCCC3)n2)cc1` [Example 4h, 1-[4-[4-[(3S)-3-methylmorpholin-4-yl]-6-(1-methylsulfonylcyclopentyl)pyrimidin-2-yl]phenyl]-3-propyl-urea], IC50 1.46 nM. Against it:
- CCNC(=O)Nc1ccc(-c2nc(N3CCOC[C@@H]3C)cc(C3(S(C)(=O)=O)CCCC3)n2)cc1 [Example 4a, 3-ethyl-1-[4-[4-[(3S)-3-methylmorpholin-4-yl]-6-(1-methylsulfonylcyclopentyl)pyrimidin-2-yl]phenyl]urea] — within 1.5-fold, 2.17 nM
- C[C@H]1COCCN1c1cc(C2(S(C)(=O)=O)CCCC2)nc(-c2ccc(NC(=O)NCCO)cc2)n1 [Example 4e, 3-(2-hydroxyethyl)-1-[4-[4-[(3S)-3-methylmorpholin-4-yl]-6-(1-methylsulfonylcyclopentyl)pyrimidin-2-yl]phenyl]urea] — 1.9-fold lower, 0.767 nM
- C[C@H]1COCCN1c1cc(C2(S(C)(=O)=O)CCCC2)nc(-c2ccc(NC(=O)NCCCO)cc2)n1 [Example 4j, 3-(3-hydroxypropyl)-1-[4-[4-[(3S)-3-methylmorpholin-4-yl]-6-(1-methylsulfonylcyclopentyl)pyrimidin-2-yl]phenyl]urea] — 2.6-fold higher, 3.79 nM
